Measurements as given in article PMC10304880, “Novel Tryptanthrin Derivatives with Selectivity as c–Jun N–Terminal Kinase (JNK) 3 Inhibitors” (Molecules, 2023).
Like-named read-outs stand apart in the source and are kept apart here.

Legend:
[1] = tested on: NF-κB/AP-1 transcriptional activity in THP-1Blue cells; test: LPS-induced NF-κB/AP-1 alkaline phosphatase reporter assay in THP-1Blue cells; assay type: cell-based; conditions: Homo sapiens, 30 min pretreatment, 250 ng/mL LPS, 24 h; read-out: AP Production in THP–1Blue IC50
Procedure: Activation of AP-1/NF-κB was measured using an alkaline phosphatase reporter gene assay in THP1-Blue cells. Human monocytic THP-1Blue cells were stably transfected with a secreted embryonic alkaline phosphatase gene that was under the control of a promoter inducible by AP-1/NF-κB.
(§1) Figure 2 Effect of compounds 4d and 4e on NF-κB/AP-1 activity and IL-6 production. Panel (A) THP-1Blue cells were pretreated with the indicated compounds or DMSO for 30 min, followed by addition of 250 ng/mL LPS or buffer for 24 h. […] Panel (B) MonoMac-6 cells were pretreated with the indicated compounds or DMSO for 30 min, followed by addition of 250 ng/mL LPS or buffer for 24 h. Production of IL-6 in the supernatants was evaluated with ELISA. The data in each panel are presented as the mean ± S.D. of triplicate samples from one experiment that is representative of three independent experiments.

[2] = tested on: c-Jun phosphorylation in MonoMac-6 cells; test: LPS-induced c-Jun (Ser63) phosphorylation in MonoMac-6 cells (sandwich ELISA); assay type: cell-based, human; conditions: 30 min pretreatment, LPS 500 ng/mL
Procedure: After 30 min pretreatment with the compounds, the cells were stimulated with LPS (500 ng/mL), and the level of phospho-c-Jun (S63) was determined by a sandwich ELISA.
MonoMac-6 cell lysates were prepared using Cell Lysis Buffer (Cell Signaling Technology, Danvers, MA, USA). The phospho-c-Jun content was measured with ELISA using the PathScan Phospho-c-Jun (Ser63) Sandwich ELISA Kit II (Cell Signaling Technology, USA), and the data are shown as the ratio of phospho-c-Jun vs. total c-Jun, which was measured using the FastScanTM Total c-Jun ELISA kit (Cell Signaling Technology).
Figure 3 Effect of the compounds 4d, 4e, 4h, and IQ-1S on LPS-induced c-Jun phosphorylation. Human MonoMac-6 monocytic cells were pretreated with the indicated concentrations of compounds or 0.5% DMSO for 30 min, followed by treatment with LPS (500 ng/mL) or control buffer for another 30 min. The cells were lysed, and the lysates were analyzed with ELISA for phospho-c-Jun (Ser63) and total c-Jun. The data are represented as the ratio of phospho-c-Jun to total c-Jun. The data are presented as the mean ± S.D. of triplicate samples from one experiment that is representative of three independent experiments. * Significant differences (p < 0.05) with LPS control.

JNK2 [3] = target: T1, JNK2 (Homo sapiens, UniProt P45984); test: KINOMEscan JNK2 binding (Kd); conditions: 12-point series, max 33 μM, duplicate
T1 construct: purchased Eurofins Pharma Discovery (KINOMEscan service)
T1 sequence (P45984 whole entry): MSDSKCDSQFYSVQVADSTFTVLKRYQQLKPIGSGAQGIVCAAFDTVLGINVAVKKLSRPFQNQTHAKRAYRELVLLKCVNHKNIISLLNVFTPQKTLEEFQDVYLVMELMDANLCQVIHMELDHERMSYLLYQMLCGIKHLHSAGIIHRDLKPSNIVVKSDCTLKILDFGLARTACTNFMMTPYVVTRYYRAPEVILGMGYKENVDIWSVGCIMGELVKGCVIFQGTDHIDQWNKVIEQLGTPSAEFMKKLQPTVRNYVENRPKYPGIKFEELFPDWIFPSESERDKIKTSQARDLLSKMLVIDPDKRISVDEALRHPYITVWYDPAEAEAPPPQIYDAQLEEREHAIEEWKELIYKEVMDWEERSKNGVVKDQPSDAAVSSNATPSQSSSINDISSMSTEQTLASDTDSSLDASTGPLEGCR
Procedure: (§2) All compounds were evaluated for their ability to bind to JNK1-3 using the KINOMEscan platform.
(§3) Compounds were submitted for dissociation constant (Kd) determination using KINOMEscan (Eurofins Pharma Discovery, San Diego, CA, USA), as described previously. […] Primary screening at fixed concentrations of compounds was performed in duplicate. To determine dissociation constant Kd, a 12-point half-log dilution series (a maximum concentration of 33 μM) was used.

JNK1 [4] = target: T2, JNK1 (Homo sapiens, UniProt P45983); test: KINOMEscan JNK1 binding (Kd); conditions: 12-point series, max 33 μM, duplicate
T2 construct: purchased Eurofins Pharma Discovery (KINOMEscan service)
T2 sequence (P45983 whole entry): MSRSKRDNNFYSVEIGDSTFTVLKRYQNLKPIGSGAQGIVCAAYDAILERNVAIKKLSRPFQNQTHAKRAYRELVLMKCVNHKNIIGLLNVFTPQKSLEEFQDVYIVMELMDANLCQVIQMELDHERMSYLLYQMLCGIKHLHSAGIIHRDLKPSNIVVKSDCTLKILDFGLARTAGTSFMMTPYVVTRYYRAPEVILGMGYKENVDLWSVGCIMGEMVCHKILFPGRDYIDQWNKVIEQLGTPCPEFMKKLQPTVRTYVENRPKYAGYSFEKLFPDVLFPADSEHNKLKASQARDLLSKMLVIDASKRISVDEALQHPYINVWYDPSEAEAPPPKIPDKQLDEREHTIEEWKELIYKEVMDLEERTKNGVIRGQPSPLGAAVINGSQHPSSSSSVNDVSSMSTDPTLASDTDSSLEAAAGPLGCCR
Procedure: as §2, §3

[5] = CellTiter-Glo cytotoxicity in MonoMac-6 cells; assay type: cell-based; conditions: human, 24 h incubation
Procedure: (§4) Prior to evaluation of the compounds in cell-based assays, we measured their cytotoxicity in human monocytic THP-1Blue and MonoMac-6 cells during a 24 h incubation. […] Thus, these compounds were all excluded from subsequent testing in these cell lines.
(§5) Cytotoxicity was analyzed with a CellTiter-Glo Luminescent Cell Viability Assay Kit from Promega (Madison, WI, USA), according to the manufacturer’s protocol. Cells were treated with the compound under investigation and cultivated for 24 h. After treatment, the cells were allowed to equilibrate to room temperature for 30 min, substrate was added, and the luminescence measured using a Fluoroscan Ascent FL (Thermo Fisher Scientific, Waltham, MA, USA). The cell IC50 values were calculated by plotting the percentage inhibition against the logarithm of inhibitor concentration (at least five points).

[6] = CellTiter-Glo cytotoxicity in THP-1Blue cells; assay type: cell-based; conditions: human, 24 h incubation
Procedure: as §4, §5

JNK3 [7] = target: T3, JNK3 (Homo sapiens, UniProt P53779); test: KINOMEscan JNK3 binding (Kd); conditions: for Kd: KINOMEscan, 12-point series, max 33 μM, duplicate; for Selectivity Index JNK1/JNK3 / Selectivity Index JNK2/JNK3: ratio of Kd values
T3 construct: purchased Eurofins Pharma Discovery (KINOMEscan service)
T3 sequence (P53779 whole entry): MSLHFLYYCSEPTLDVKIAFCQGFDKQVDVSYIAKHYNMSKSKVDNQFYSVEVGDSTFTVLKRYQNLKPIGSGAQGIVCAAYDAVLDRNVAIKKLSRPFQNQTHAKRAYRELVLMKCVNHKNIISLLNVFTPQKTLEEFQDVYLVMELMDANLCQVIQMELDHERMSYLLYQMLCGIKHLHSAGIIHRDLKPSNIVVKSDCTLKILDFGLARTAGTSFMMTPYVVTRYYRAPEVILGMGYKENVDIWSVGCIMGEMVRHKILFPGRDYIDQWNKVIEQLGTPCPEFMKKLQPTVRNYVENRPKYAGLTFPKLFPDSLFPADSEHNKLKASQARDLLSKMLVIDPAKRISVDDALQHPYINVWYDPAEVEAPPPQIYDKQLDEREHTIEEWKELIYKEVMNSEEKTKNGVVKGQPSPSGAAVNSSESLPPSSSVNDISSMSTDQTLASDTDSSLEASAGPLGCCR
Procedure: as §2, §3

[8] = tested on: IL-6 production in MonoMac-6 cells; test: LPS-induced IL-6 production in MonoMac-6 cells (ELISA); assay type: cell-based, human; conditions: 250 ng/mL LPS, 24 h
Procedure: All cells were cultured at 37 °C in a humidified atmosphere containing 5% CO2. Human THP-1Blue monocytic cells obtained from InvivoGen (San Diego, CA, USA) were cultured in RPMI 1640 medium (Mediatech Inc., Herndon, VA, USA) supplemented with 10% (v/v) fetal bovine serum (FBS), 4.5 g/L glucose, 100 μg/mL streptomycin, 100 U/mL penicillin, 100 μg/mL phleomycin (Zeocin), and 10 μg/mL blasticidin S. Human monocyte-macrophage MonoMac-6 cells (Deutsche Sammlung von Mikroorganismen und Zellkulturen GmbH, Braunschweig, Germany) were grown in RPMI 1640 medium supplemented with 10% (v/v) FBS, 10 μg/mL bovine insulin, 100 μg/mL streptomycin, and 100 U/mL penicillin.
as §1, with “Panel” for “Figure 2 Effect of compounds 4d and 4e on NF-κB/AP-1 activity and IL-6 production. Panel”

JNK3 [9] = target: T3, JNK3; conditions: cited from earlier work; for Kd: Figure 1, ref [49],[50],[51]
JNK2 [10] = target: T1, JNK2; conditions: Figure 1; ref [49],[50],[51]; cited from earlier work
JNK1 [11] = target: T2, JNK1; conditions: Figure 1; ref [49],[50],[51]; cited from earlier work
[12] = Homo sapiens, MONO-MAC-6, 30 min pretreatment

Structure (SMILES) | IC50 [1] [µM] | melting point | LPS-induced c-Jun phosphorylation (phospho-c-Jun S63 / total c-Jun) [2] | Kd (JNK2 [3]) [µM] | Kd (JNK1 [4]) [µM] | IC50 at 24 h [5] [µM] | IC50 at 24 h [6] [µM] | selectivity index (JNK3 versus JNK1 and JNK2) (JNK3 [7]) | Kd (JNK3 [7]) [µM] | Selectivity Index JNK1/JNK3 (JNK3 [7]) | Selectivity Index JNK2/JNK3 (JNK3 [7]) | IC50 ([8]; 30 min pretreatment) [µM] | IC50 [8, 12] [µM] | Kd (JNK3 [9]) [µM] | Kd (JNK2 [10]) [µM] | Kd (JNK1 [11]) [µM] | selectivity for JNK3 binding versus JNK1/JNK2 (JNK3 [9]; ref [49])
COc1ccc2c(c1)C(=NO)c1nc3ccccc3c(=O)n1-2 [Compound 4d, 8-Methoxyindolo[2,1-b]quinazolin-6,12-dione Oxime] | 0.8 ± 0.3 | > 225 °C (dec.) | dose-dependently inhibited | > 30 | > 30 | > 50 | > 50 | > 7 | 0.34 ± 0.03 | >100 | >100 | 0.7 ± 0.1 | < 1 | – | – | – | –
O=c1c2ccccc2nc2n1-c1ccc(-c3ccccc3)cc1C2=NO [Compound 4e, 8-Phenylindolo[2,1-b]quinazolin-6,12-dione Oxime] | 1.6 ± 0.1 | > 225 °C (dec.) | dose-dependently inhibited | > 30 | > 30 | > 50 | > 50 | > 7 | 0.34 ± 0.04 | >100 | >100 | – | – | – | – | – | –
Cc1ccc2c(c1)-n1c(nc3ccccc3c1=O)C2=NO [Compound 4h, 9-Methylindolo[2,1-b]quinazolin-6,12-dione Oxime] | – | > 225 °C (dec.) | dose-dependently inhibited | 0.57 ± 0.12 | 0.67 ± 0.35 | > 50 | > 50 | – | 0.23 ± 0.04 | 2.9 | 2.5 | – | – | – | – | – | –
COc1ccc2c(c1)C(=NO)c1nc3ccc(OC)cc3c(=O)n1-2 [Compound 4q, 2,8-Dimethoxylindolo[2,1-b]quinazolin-6,12-dione Oxime] | 4.6 ± 0.3 | 262 to 263 °C | – | > 30 | > 30 | > 50 | > 50 | – | > 30 | – | – | – | 1.3 ± 0.4 | – | – | – | –
O=c1c2c(Br)cccc2nc2n1-c1cccc(Br)c1C2=NO [Compound 4u, 1,7-Dibromoindolo[2,1-b]quinazolin-6,12-dione Oxime] | > 50 | > 300 °C (dec.) | – | > 30 | > 30 | > 50 | > 50 | – | > 30 | – | – | – | > 50 | – | – | – | –
CCOC(=O)CON=C1c2ccccc2-n2c1nc1ccccc1c2=O [Compound 5a, Ethyl 2-(((12-Oxoindolo[2,1-b]quinazolin-6(12H)-ylidene)amino)oxy)acetate] | > 50 | 218 °C | – | > 30 | > 30 | > 50 | > 50 | – | > 30 | – | – | – | > 50 | – | – | – | –
CCOC(=O)C(ON=C1c2ccccc2-n2c1nc1ccccc1c2=O)C(=O)OCC [Compound 5b, Diethyl 2-(((12-Oxoindolo[2,1-b]quinazolin-6(12H)-ylidene)amino)oxy)malonate] | > 50 | 211 °C | – | > 30 | 16.5 ± 0.7 | > 50 | > 50 | – | > 30 | – | – | – | > 50 | – | – | – | –
COC(=O)ON=C1c2ccccc2-n2c1nc1ccccc1c2=O [Compound 5c, 6-(((Methoxycarbonyl)oxy)imino)indolo[2,1-b]quinazolin-12(6H)-one] | 8.1 ± 2.2 | 197 °C | – | 2.8 ± 0.5 | 1.7 ± 0.4 | > 50 | > 50 | – | 0.7 ± 0.12 | 2.4 | 4.0 | – | 12.4 ± 1.3 | – | – | – | –
C#CCOC(=O)ON=C1c2ccccc2-n2c1nc1ccccc1c2=O [Compound 5d, 6-((((Prop-2-yn-1-yloxy)carbonyl)oxy)imino)indolo[2,1-b]quinazolin-12(6H)-one] | 4.4 ± 1.6 | 210 °C | – | 1.6 ± 0.1 | 0.95 ± 0.03 | > 50 | > 50 | – | 0.32 ± 0.06 | 3.0 | 5.0 | – | 7 ± 0.9 | – | – | – | –
[Na+].[O-]/N=C1/c2ccccc2-c2nc3ccccc3nc21 [IQ-1S, reference compound] | – | – | dose-dependently inhibited | – | – | – | – | – | – | – | – | – | – | – | – | – | –
O/N=C1\c2ccccc2-c2nc3cc(F)c(F)cc3nc21 [IQ–4f] | – | – | – | – | – | – | – | – | – | – | – | – | – | 0.52 | > 30 | 0.17 | –
O/N=C1\c2ccccc2-c2nc3ccc(Cl)cc3nc21 [IQ–6i] | – | – | – | – | – | – | – | – | – | – | – | – | – | 0.71 | 21.5 | 1.1 | –
N#CCO/N=C1\c2ccccc2-n2c1nc1ccccc1c2=O [TRYP–1e] | – | – | – | – | – | – | – | – | – | – | – | – | – | 1.5 | 17.5 | 19.5 | ~ 10 fold
